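48-hour exposure; five concentrations; linearly interpolated endpoints. TGI marks complete inhibition of growth.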
Columns and labels:
Assay in all cases: NCI tumour cell line growth inhibition, 48 h
[1] = test system: A498 renal
[2] = test system: A549 NSCLC
[3] = test system: ACHN renal
[4] = test system: BT-549 breast
[5] = test system: CAKI-1 renal
[6] = test system: CCRF-CEM leukemia
[7] = test system: COLO 205 colon
[8] = test system: EKVX NSCLC
[9] = test system: HCT-116 colon
[10] = test system: HCT-15 colon
[11] = test system: HL-60(TB) leukemia
[12] = test system: HOP-62 NSCLC
[13] = test system: HOP-92 NSCLC
[14] = test system: HS 578T breast
[15] = test system: HT29 colon
[16] = test system: IGROV1 ovarian
[17] = test system: K-562 leukemia
[18] = test system: M14 melanoma
[19] = test system: MALME-3M melanoma
[20] = test system: MCF7 breast
[21] = test system: MDA-MB-435
[22] = test system: MDA-N
[23] = test system: MOLT-4 leukemia
[24] = test system: NCI-H23 lung
[25] = test system: NCI-H460 lung
[26] = test system: NCI/ADR-RES ovarian
[27] = test system: OVCAR-3 ovarian
[28] = test system: OVCAR-4 ovarian
[29] = test system: OVCAR-5 ovarian
[30] = test system: OVCAR-8 ovarian
[31] = test system: PC-3 prostate
[32] = test system: RPMI-8226 leukemia
[33] = test system: SF-268 CNS
[34] = test system: SF-295 CNS
[35] = test system: SF-539 CNS
[36] = test system: SK-MEL-2 melanoma
[37] = test system: SK-MEL-28 melanoma
[38] = test system: SK-MEL-5 melanoma
[39] = test system: SK-OV-3 ovarian
[40] = test system: SN12C renal
[41] = test system: SNB-19 CNS
[42] = test system: SR leukemia
[43] = test system: SW-620 colon
[44] = test system: TK-10 renal
[45] = test system: UACC-257 melanoma
[46] = test system: UACC-62 melanoma
[47] = test system: UO-31 renal
[48] = test system: 786-0 renal
[49] = test system: DU-145 prostate
[50] = test system: HCC-2998 colon
[51] = test system: KM12 colon
[52] = test system: LOX IMVI melanoma
[53] = test system: MDA-MB-231 breast
[54] = test system: NCI-H226 lung
[55] = test system: NCI-H522 lung
[56] = test system: RXF 393 renal
[57] = test system: T-47D breast
[58] = test system: U251 CNS

O=C(C(=C(I)I)c1ccccc1)c1ccccc1
TGI [1]: 28.6 µM
TGI [2]: > 100 µM
TGI [3]: > 100 µM
TGI [4]: > 100 µM
TGI [5]: > 100 µM
TGI [6]: 51.7 µM
TGI [7]: > 100 µM
TGI [8]: > 100 µM
TGI [9]: 36.9 µM
TGI [10]: > 100 µM
TGI [11]: 52.3 µM
TGI [12]: 37.7 µM
TGI [13]: 82.9 µM
TGI [14]: 43.2 µM
TGI [15]: > 100 µM
TGI [16]: 44.4 µM
TGI [17]: 21.4 µM
TGI [18]: 73.3 µM
TGI [19]: 46.8 µM
TGI [20]: > 100 µM
TGI [21]: > 100 µM
TGI [22]: 62.1 µM
TGI [23]: 58.1 µM
TGI [24]: 88.8 µM
TGI [25]: > 100 µM
TGI [26]: > 100 µM
TGI [27]: 42.3 µM
TGI [28]: > 100 µM
TGI [29]: > 100 µM
TGI [30]: > 100 µM
TGI [31]: > 100 µM
TGI [32]: 45.5 µM
TGI [33]: > 100 µM
TGI [34]: 65.5 µM
TGI [35]: 52.6 µM
TGI [36]: 38 µM
TGI [37]: 94.7 µM
TGI [38]: 30.9 µM
TGI [39]: > 100 µM
TGI [40]: > 100 µM
TGI [41]: > 100 µM
TGI [42]: 93.6 µM
TGI [43]: > 100 µM
TGI [44]: 83.7 µM
TGI [45]: > 100 µM
TGI [46]: 53.4 µM
TGI [47]: 58.8 µM

O=C(NC(C(F)(F)F)(C(F)(F)F)P(=O)(Cc1ccccc1)Cc1ccccc1)C(C(F)(F)F)C(F)(F)F
TGI [48]: 34.4 µM
TGI [1]: 32.3 µM
TGI [2]: 68.3 µM
TGI [3]: 42.7 µM
TGI [5]: 97.1 µM
TGI [6]: > 100 µM
TGI [7]: 38 µM
TGI [49]: > 100 µM
TGI [8]: 58.9 µM
TGI [50]: 49.8 µM
TGI [9]: 33.1 µM
TGI [10]: > 100 µM
TGI [11]: 71.3 µM
TGI [12]: 41.6 µM
TGI [14]: > 100 µM
TGI [15]: 45.4 µM
TGI [16]: 36.1 µM
TGI [17]: > 100 µM
TGI [51]: 37.7 µM
TGI [52]: 35.2 µM
TGI [18]: 34.8 µM
TGI [19]: 47.1 µM
TGI [20]: 31.8 µM
TGI [53]: 38.8 µM
TGI [21]: 34.3 µM
TGI [22]: 43.6 µM
TGI [23]: 55.1 µM
TGI [54]: 32.4 µM
TGI [24]: 40.8 µM
TGI [25]: 78.3 µM
TGI [55]: 60.4 µM
TGI [26]: 44 µM
TGI [27]: > 100 µM
TGI [29]: 41.8 µM
TGI [30]: 46.5 µM
TGI [31]: 49 µM
TGI [32]: 72 µM
TGI [56]: 47.6 µM
TGI [33]: 59.4 µM
TGI [34]: 44.6 µM
TGI [35]: 43.6 µM
TGI [36]: 59.1 µM
TGI [37]: 53.1 µM
TGI [38]: 29.1 µM
TGI [39]: > 100 µM
TGI [40]: 38.4 µM
TGI [41]: 59.4 µM
TGI [42]: 80.6 µM
TGI [43]: 92.7 µM
TGI [57]: 95.1 µM
TGI [44]: 39.1 µM
TGI [58]: 41.5 µM
TGI [45]: 46.5 µM
TGI [46]: 62.4 µM
